Assay results reported in patent publication US4242327A, “Antibiotic SF-2052 substance and production and use thereof” (Meiji Seika Kaisha, Ltd., priority 1978, dated 1980).
“Also recorded” adds a separate entry of the source. Structures can show the parent of a compound that is named as a salt.

What was measured:
Stability = assay type: physicochemical
Solubility = assay type: physicochemical; conditions: for solubility in organic solvents: chloroform, ethyl acetate
mice = assay: Acute toxicity, intravenous injection in mice; assay type: in vivo; conditions: in words
Source text: (§1) For determination of acute toxicity of the SF-2052 substance sulfate, this was intravenously injected as its solution in isotonic aqueous solution of sodium chloride into several groups of mice. […] According to this invention, therefore, there is further provided an antibacterial composition comprising as the active ingredient an antibacterially effective amount of at least one of the pharmaceutically acceptable acid-addition salts of the SF-2052 substance, in association with a pharmaceutically acceptable liquid or solid carrier. The content of this active ingredient in this antibacterial composition may be in a range of 5% to 50% by weight of the composition.

[1] = Acute toxicity, intravenous injection in mice; assay type: in vivo; conditions: mouse, in vivo, solution in isotonic aqueous sodium chloride, estimated
Source text: as §1

[2] = test system: Staphylococcus aureus 209P; assay: Minimum inhibitory concentration, standard serial dilution method on Heart Infusion agar; assay type: cell-based; conditions: 37° C., 16 hours
Description: (§2) Antibacterial activity of SF-2052 substance of this invention (as the sulfate) to inhibit the growth of various bacteria was estimated according to a standard serial dilution method using Heart Infusion agar as the incubation medium. The incubation was made at a temperature of 37° C. for 16 hours.

Proteus vulgaris = assay: as above; assay type: cell-based; conditions: 37° C., 16 hours
Description: as §2

Escherichia coli K-12-R = assay: as above; assay type: cell-based; conditions: 16 h
Description: as §2

[3] = test system: Bacillus subtillis PCI-219; assay: as above; assay type: cell-based; conditions: PCI219, 37° C., 16 hours
Description: as §2

Pseudomonas aeruginosa = assay: as above; assay type: cell-based; conditions: 37° C., 16 hours
Description: as §2

[4] = test system: Mycobacterium smegmatis 607 Sm-R; assay: as above; assay type: cell-based; conditions: Mycolicibacterium smegmatis, 607SMR, 16 h
Description: as §2

[5] = test system: Mycobacterium smegmatis 607 Km-R; assay: as above; assay type: cell-based; conditions: Mycolicibacterium smegmatis, 607KMR, 16 h
Description: as §2

Escherichia coli = assay: as above; assay type: cell-based; conditions: 37° C., 16 hours
Description: as §2

Escherichia coli B = assay: as above; assay type: cell-based; conditions: 37° C., 16 hours
Description: as §2

Sarcina lutea = assay: as above; assay type: cell-based; conditions: Micrococcus luteus, 37° C., 16 hours
Description: as §2

Klebsiella pneumonia = assay: as above; assay type: cell-based; conditions: Klebsiella pneumoniae, 37° C., 16 hours
Description: as §2

[6] = test system: gram-negative and gram-positive bacteria; assay: Antibacterial activity, summary of Table 1; assay type: cell-based; conditions: against both gram-negative and gram-positive bacteria
Description: as §2

Structure (SMILES) | stability under acidic to neutral pH conditions (Stability; acidic to neutral pH) | stability under alkaline pH conditions (Stability) | solubility in organic solvents (Solubility; hexane, benzene and ethylether etc.) | solubility in organic solvents (Solubility; benzene and ethylether) | solubility in methanol (Solubility; methanol) | solubility in water (Solubility; water) | acute toxicity (mice) | LD50 [1] | MIC [2] | MIC (Proteus vulgaris) | MIC (Escherichia coli K-12-R) | MIC [3] | MIC (Pseudomonas aeruginosa) | MIC [4] | MIC [5] | MIC (Escherichia coli) | MIC (Escherichia coli B) | MIC (Sarcina lutea) | MIC (Klebsiella pneumonia) | antibacterial activity [6]
COC1C(O)C(N)C(OC2OC(C(C)N)CCC2N)C(O)C1N(C)C(=O)CNC=N (stereo not drawn) [SF-2052 substance hydrochloride] | Relatively stable; also recorded: substantially stable | instable | substantially insoluble | insoluble | soluble in methanol | Easily soluble in water; also recorded: readily soluble in water | – | – | – | – | – | – | – | – | – | – | – | – | – | –
COC1C(O)C(N)C(OC2OC(C(C)N)CCC2N)C(O)C1N(C)C(=O)CNC=N (stereo not drawn) [SF-2052 substance sulfate] | – | – | – | – | – | – | substantially non-toxic | 350 mg/kg | 3.12 µg/mL | 1.56 µg/mL | 3.12 µg/mL | 1.56 µg/mL | 100 µg/mL | 1.56 µg/mL | 100 µg/mL | 12.5 µg/mL | 6.25 µg/mL | 0.78 µg/mL | 3.12 µg/mL | –
COC1C(O)C(N)C(OC2OC(C(C)N)CCC2N)C(O)C1N(C)C(=O)CNC=N (stereo not drawn) [SF-2052 substance] | – | very instable; also recorded: instable | – | – | – | – | – | – | – | – | – | – | – | – | – | – | – | – | – | high antibacterial activity against both gram-negative and gram-positive bacteria
